Read-outs that look alike come from different tables or passages of the source.
Key:
[1] = Cytotoxicity in HeLa cells without addition of OC43 virus (in parallel); details: human, HeLa cells, without OC43 virus
[2] = molecular target: SARS-Cov-2 3CLpro (Severe acute respiratory syndrome coronavirus 2, UniProt P0DTD1); experiment: biochemical; details: Table A, class symbols
[3] = test system: human beta-coronavirus OC43; experiment: OC43 Coronavirus Assay in HeLa cells (antiviral, cytopathic effect, cell-titer-glo); format: cell-based; details: Table B, OC43 coronavirus in HeLa cells, read-out: EC50
[4] = test system: SARS-CoV-2 B.1.1.7 lineage; experiment: microbe, parasite or virus in culture; format: cell-based; details: Table C, SARS-CoV-2 B.1.1.7 in A549-dual_ACE2_TMPRSS2 cells, read-out: A549-dual_ACE2_TMPRSS2 (EC50)
[5] = Toxicity testing in A549-dual_ACE2_TMPRSS2 cells without virus (MTS); details: human
[6] = test system: HeLa human cervical epithelial cells; experiment: Cytotoxicity in HeLa cells without addition of OC43 virus (in parallel); details: Table B; HeLa cells without OC43 virus, class symbols
[7] = test system: A549-dual_ACE2_TMPRSS2 cells; experiment: Toxicity testing in A549-dual_ACE2_TMPRSS2 cells without virus (MTS); details: read-out: A549-dual_ACE2_TMPRSS2 (CC50); Table C; A549-dual_ACE2_TMPRSS2 cells without virus, class symbols
[8] = test system: A549-dual_ACE2_TMPRSS2 cells; details: human

SMILES | CC50 at 6 days [1] [nM] | IC50 ([2]; SARS-Cov-2 (IC50)) [nM] | EC50 ([3]; Betacoronavirus 1, class symbols) [nM] | EC50 ([4]; Severe acute respiratory syndrome coronavirus 2, cells given as a bound) [nM] | CC50 [5] [nM] | CC50 [6] [nM] | IC50 ([2]; read-out: SARS-Cov-2 (IC50)) [nM] | EC50 ([3]; cells given as a bound) [nM] | EC50 ([4]; cells given as a bound) [nM] | CC50 [7] [nM] | CC50 [8] [nM] | EC50 ([3]; Betacoronavirus 1, OC43, HeLa, cells given as a bound) [nM] | EC50 ([4]; class symbols) [nM] | EC50 ([3]; class symbols) [nM]
C[C@H](NC(=O)Oc1ccc(F)cc1)C(=O)N(C)[C@@H](CC1CC1)C(=O)N1C[C@@]2(C[C@H]1C#N)Oc1cc(F)cc(F)c1NC2=O [Compound 119, 4-fluorophenyl ((S)-1-(((S)-1-((2R,5'S)-5′-cyano-5,7-difluoro-3-oxo-3,4-dihydrospiro[benzo[b][1,4]oxazine-2,3′-pyrrolidin]-1′-yl)-3-cyclopropyl-1-oxopropan-2-yl)(methyl)amino)-1-oxopropan-2-yl)carbamate] | > 10000 | < 20 | 100 to 1000 | > 1000 | > 1000 | – | – | – | – | – | – | – | – | –
Cc1nnn(C(CC2CC2)C(=O)N(C)[C@@H](CC2CC2)C(=O)N2C[C@@]3(C[C@H]2C#N)Oc2cc(F)cc(F)c2NC3=O)c1C (relative stereo) [Compound 118, ((R*)—N—((S)-1-((2R,5'S)-5′-cyano-5,7-difluoro-3-oxo-3,4-dihydrospiro[benzo[b][1,4]oxazine-2,3′-pyrrolidin]-1′-yl)-3-cyclopropyl-1-oxopropan-2-yl)-3-cyclopropyl-2-(4,5-dimethyl-1H-1,2,3-triazol-1-yl)-N-methylpropanamide] | – | – | – | – | – | > 10000 | 200 to 2000 | > 10000 | > 1000 | > 1000 | – | – | – | –
C[C@H](NC(=O)C(F)(F)F)C(=O)N(C)[C@@H](CC1CC1)C(=O)N1C[C@]2(C[C@H]1C#N)C(=O)NCC2Oc1ccccc1 (some centres unmarked) [Compound 94] | – | – | – | – | – | > 10000 | 20 to 200 | – | – | – | > 1000 | > 10000 | 100 to 1000 | –
CN(C(=O)[C@H](CC(C)(C)C)NC(=O)C(F)(F)F)[C@@H](CC1CC1)C(=O)N1C[C@@]2(C[C@H]1C#N)Oc1cccnc1NC2=O [Compound 233] | – | – | – | – | – | > 10000 | < 20 | – | – | – | > 1000 | – | < 100 | 100 to 1000
